Experimental data published in patent US20250188095A1, “DISUBSTITUTED OCTAHYDROPYRROLO[3,4-c]PYRROLYL METHYL KETONE DERIVATIVE AND USE THEREOF” (JIANGSU NHWA PHARMACEUTICAL CO., LTD, priority 2022, published 2025).

Assays:
OX1 receptor = OX1 receptor (Homo sapiens (Human), UniProt O43613); experiment: In vitro activity test (Cisbio IP-one, CHO-K1-OX1 cells, antagonism of EC80 Orexin A); format: cell-based
Experimental: (§1) (1) Preparation of a reaction buffer (1×Stimulation buffer) required for the experiment: The 5×Stimulation buffer and ddH2O in the Cisbio IP-one kit were diluted in a ratio of 1:4 for later use.
(§2) (2) Compound preparation: The compound was diluted with DMSO to obtain a 5 mM stock solution, followed by a 3.16-fold dilution to obtain 10 gradients, and then the prepared compound was diluted with the Stimulation buffer to the corresponding concentrations (4×) for later use.
(§3) (3) Cell preparation: CHO-K1-OX1 and CHO-K1-OX2 cells on the culture dish were digested with trypsin, and the cells were washed off with culture medium and collected into 5 mL centrifuge tubes. The cells were centrifuged at 1000 rpm for 5 min, and the supernatant was discarded. 3 mL of PBS was added, and the mixture was gently pipetted to be mixed well. The cells were centrifuged again at 1000 rpm for 5 min, and the supernatant was discarded. The cells were resuspended in 1×Stimulation buffer and counted using a Countstar cell counter, and the cell density was adjusted to 1.71×10^6 cells/mL for later use.
(§4) (4) Cell addition: The cell suspensions were added to assay plates at 7 μL/well (i.e., about 12,000 cells/well).
(§5) (5) Compound addition: The compound diluted with the Stimulation buffer was added to the assay plates described above at 3.5 μL/well.
(§6) (6) Reaction and incubation: After gentle shaking, the assay plates were incubated at 37° C. for 30 min.
(§7) (7) EC80 agonist addition: 4×Orexin A (OX1 receptor) and 4×Orexin 2 receptor agonist (OX2 receptor) solutions of EC80 were added at 3.5 μL/well.
(§8) (8) Reaction and incubation: After gentle shaking, the assay plates were incubated at 37° C. for 45 min.
(§9) (9) Detection reagent addition: IP1-d2 and Anti-IP1 cryptate were separately diluted in a 1:20 ratio with the Lysis & detection buffer in the Cisbio IP-one detection kit, and the diluted IP1-d2 and Anti-IP1 cryptate described above were added to the assay plates, each at 3 μL/well. After shaking, the assay plates were left to stand at room temperature for 60 min.
(§10) (10) Experimental readings: The plate was read on Envision, readings from the 665 nm and 615 nm channels were taken, and the ratio of 665 nm/615 nm readings was calculated.
(§11) Based on the antagonistic effect values of the compound sample at different concentration test points, antagonistic curves of the compound sample against the orexin receptors were fitted using GraphPad Prism software, and the IC50 was calculated.

OX2 receptor = OX2 receptor (Homo sapiens (Human), UniProt O43614); experiment: In vitro activity test (Cisbio IP-one, CHO-K1-OX2 cells, antagonism of EC80 agonist); format: cell-based
Experimental: as §1, §2, §3, §4, §5, §6, §7, §8, §9, §10, §11

[1] = Rat pharmacokinetic parameters in rat plasma; format: in vivo; conditions: male SD rats; for bioavailability: PO 10 mg/kg vs iv 1 mg/kg, read-out: F (%) oral bioavailability
Experimental: Healthy male SD rats aged 6-9 weeks were selected and randomly divided into two groups, with 3 rats in each group. One group was given 1 mg/kg of the test compound by intravenous injection, and the other group was given 10 mg/kg of the test compound by gavage. Whole blood was collected from the animals in the intravenous group and the gavage group before administration and 0.083, 0.25, 0.5, 1.0, 2.0, 4.0, 7.0, 10.0, and 24.0 h after administration and centrifuged to obtain plasma samples.
All biological samples were quantitatively analyzed using the LC-MS/MS method. Pharmacokinetic parameters were calculated using the non-compartmental model linear-log trapezoidal method using WinNonlinTMVersion7.0 (Pharsight, Mountain View, CA) pharmacokinetic software. AUC0-last represents the area under the plasma concentration-time curve from time point zero to the last detectable concentration time point; PO represents oral administration; iv represents intravenous, Cmax represents the peak concentration, and F % represents oral bioavailability.

ICR mice [2] = experiment: Autonomous activities of mice; format: in vivo; conditions: male ICR mice; for Inhibition rate (%): vs vehicle; for Movement distance (m): within 60 min, Mean±SD
Experimental: Male ICR mice aged 6-9 weeks were randomly divided into groups based on body weight balance, with 8 or 9 mice per group, and the groups were given blank vehicle and 10, 30, and 100 mg/kg of the test compound, respectively. The animals were placed in a test chamber immediately after administration, and the activity distances of the animals within 60 min were recorded and analyzed with Top Scan Version 3.0. […] Experimental data were expressed as mean±standard deviation (Mean±SD). One-way ANOVA analysis was performed using SPSS 21.0 statistical software, and pairwise comparisons were performed using Dunnett's test, with p<0.05 represented by *.

ICR mice [3] = experiment: Pentobarbital sodium synergistic sleep test; format: in vivo; conditions: male ICR mice, pentobarbital sodium 45 mg/kg ip, Mean±SD
Experimental: Male ICR mice aged 6-9 weeks were randomly divided into groups based on body weight balance, with 8 mice per group, and the groups were given blank vehicle and 3, 10, and 30 mg/kg of the test compound, respectively. After 5 min, pentobarbital sodium was intraperitoneally injected at 45 mg/kg. The moments when righting reflexes disappeared and the moments when righting reflexes reappeared in mice were recorded. Sleep latency=moment when righting reflex disappeared−moment when pentobarbital sodium was administered, and sleep duration=moment when righting reflex reappeared−moment when righting reflex disappeared. […] Experimental data were expressed as mean±standard deviation (Mean±SD). One-way ANOVA analysis was performed using SPSS 21.0 statistical software, and pairwise comparisons were performed using Dunnett's test, with p<0.05 represented by *.

OX1 receptor, sequence (O43613 whole entry): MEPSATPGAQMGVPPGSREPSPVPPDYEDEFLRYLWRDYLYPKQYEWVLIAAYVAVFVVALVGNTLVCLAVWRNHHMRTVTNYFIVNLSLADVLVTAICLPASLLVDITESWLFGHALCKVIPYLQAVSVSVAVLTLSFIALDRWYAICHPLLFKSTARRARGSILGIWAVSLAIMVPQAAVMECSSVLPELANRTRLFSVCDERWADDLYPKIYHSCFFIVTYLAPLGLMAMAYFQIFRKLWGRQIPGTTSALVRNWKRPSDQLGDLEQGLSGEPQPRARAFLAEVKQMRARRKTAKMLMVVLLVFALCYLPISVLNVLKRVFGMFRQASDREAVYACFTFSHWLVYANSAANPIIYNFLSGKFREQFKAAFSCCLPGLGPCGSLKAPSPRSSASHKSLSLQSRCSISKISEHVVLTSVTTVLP
OX2 receptor, sequence (O43614 whole entry): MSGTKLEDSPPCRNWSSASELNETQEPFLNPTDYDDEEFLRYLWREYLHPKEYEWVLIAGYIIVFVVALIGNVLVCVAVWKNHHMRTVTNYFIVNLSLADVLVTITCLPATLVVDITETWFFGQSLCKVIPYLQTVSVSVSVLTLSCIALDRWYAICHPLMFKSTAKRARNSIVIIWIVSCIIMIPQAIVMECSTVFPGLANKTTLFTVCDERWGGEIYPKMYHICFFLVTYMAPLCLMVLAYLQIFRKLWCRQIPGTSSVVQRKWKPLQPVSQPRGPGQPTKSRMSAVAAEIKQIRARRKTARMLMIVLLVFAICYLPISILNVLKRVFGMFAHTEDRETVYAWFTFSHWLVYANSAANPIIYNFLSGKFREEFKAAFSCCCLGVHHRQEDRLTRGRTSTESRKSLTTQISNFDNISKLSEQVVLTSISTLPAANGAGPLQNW

SMILES | IC50 (OX1 receptor) [nM] | IC50 (OX2 receptor) [nM] | AUC(0-t) ([1]; PO 10 mg/kg) [ng·h/mL] | Cmax ([1]; PO 10 mg/kg) [ng/mL] | bioavailability [1] [%] | AUC(0-t) ([1]; iv 1 mg/kg) [ng·h/mL] | Cmax ([1]; iv 1 mg/kg) [ng/mL] | Inhibition rate (%) (ICR mice [2]; 10 mg/kg) | Movement distance (m) (ICR mice [2]; 10 mg/kg) | Inhibition rate (%) (ICR mice [2]; 30 mg/kg) | Movement distance (m) (ICR mice [2]; 30 mg/kg) | Inhibition rate (%) (ICR mice [2]; 100 mg/kg) | Movement distance (m) (ICR mice [2]; 100 mg/kg) | Sleep duration (ICR mice [3]; 3 mg/kg) [min] | Sleep latency (ICR mice [3]; 3 mg/kg) [min] | Sleep duration (ICR mice [3]; 10 mg/kg) [min] | Sleep latency (ICR mice [3]; 10 mg/kg) [min] | Sleep duration (ICR mice [3]; 30 mg/kg) [min] | Sleep latency (ICR mice [3]; 30 mg/kg) [min]
Cc1cc(C)nc(N2C[C@H]3CN(C(=O)c4c(-c5ncccc5F)cn5ccccc45)C[C@H]3C2)n1 [Example 3, ((3aR,6aS)-5-(4,6-dimethylpyrimidin-2-yl)hexahydropyrrolo[3,4-c]pyrrol-2(1H)-yl)(2-(3-fluoropyridin-2-yl)indolizin-1-yl)methanone] | > 1000 | < 100 | 2000 | 2780 | 56.3 | 355 | 875 | −5.22 | 68.58 ± 24.42 | 9.82 | 58.78 ± 18.31 | 40.63 | 38.69 ± 13.98 | 57.88 ± 23.72 | 15.21 ± 4.60 | 62.73 ± 29.84 | 17.72 ± 6.04 | 63.15 ± 34.38 | 24.28 ± 8.97
Cc1cc(C)nc(N2C[C@H]3CN(C(=O)c4c(-c5cccs5)nn5ccccc45)C[C@H]3C2)n1 [Example 5, ((3aR,6aS)-5-(4,6-dimethylpyrimidin-2-yl)hexahydropyrrolo[3,4-c]pyrrol-2(1H)-yl)(2-(thiophen-2-yl)pyrazolo[1,5-a]pyridin-3-yl)methanone] | > 1000 | < 100 |  |  |  |  |  | 2.37 | 63.64 ± 33.70 | 46.97 | 34.56 ± 10.71 | 49.17 | 33.13 ± 14.64 |  |  |  |  |  | 
Cc1cc(C)nc(N2C[C@H]3CN(C(=O)c4c(-c5ccccn5)nn5cc(F)ccc45)C[C@H]3C2)n1 [Example 30, ((3aR,6aS)-5-(4,6-dimethylpyrimidin-2-yl)hexahydropyrrolo[3,4-c]pyrrol-2(1H)-yl)(6-fluoro-2-(pyridin-2-yl)pyrazolo[1,5-a]pyridin-3-yl)methanone] | > 1000 | < 100 | 353 | 668 | 24.6 | 143 | 439 |  |  |  |  |  |  | 62.34 ± 17.87 | 5.03 ± 0.51 | 66.79 ± 14.88 | 5.17 ± 0.81 | 65.61 ± 19.83 | 6.52 ± 5.25
Cc1cc(C)nc(N2C[C@H]3CN(C(=O)c4c(-c5ccncc5)nn5ccccc45)C[C@H]3C2)n1 [Example 34, ((3aR,6aS)-5-(4,6-dimethylpyrimidin-2-yl)hexahydropyrrolo[3,4-c]pyrrol-2(1H)-yl)(2-(pyridin-4-yl)pyrazolo[1,5-a]pyridin-3-yl)methanone] | > 1000 | < 100 | 560 | 925 | 25.3 | 221 | 715 | 8.19 | 59.84 ± 19.89 | 28.13 | 46.84 ± 16.61 | 50.36 | 32.36 ± 20.35 |  |  |  |  |  | 
Cc1cc(C)nc(N2C[C@H]3CN(C(=O)c4c(-c5cccnc5)nn5ccccc45)C[C@H]3C2)n1 [Example 36, [(3aR,6aS)-5-(4,6-dimethylpyrimidin-2-yl)hexahydropyrrolo[3,4-c]pyrrol-2(1H)-yl][2-(pyridin-3-yl)pyrazolo[1,5-a]pyridin-3-yl]methanone] | > 1000 | < 100 |  |  |  |  |  | 32.08 | 44.27 ± 13.76 | 34.37 | 42.78 ± 20.27 | 57.33 | 27.81 ± 19.12 | 50.35 ± 9.35 | 10.21 ± 4.49 | 38.89 ± 10.66 | 10.58 ± 5.65 | 56.19 ± 27.74 | 8.84 ± 3.67
Cc1cc(C)nc(N2C[C@H]3CN(C(=O)c4c(-c5cccs5)nn5cc(F)ccc45)C[C@H]3C2)n1 [Example 37, [(3aR,6aS)-5-(4,6-dimethylpyrimidin-2-yl)hexahydropyrrolo[3,4-c]pyrrol-2(1H)-yl][6-fluoro-2-(thiophen-2-yl)pyrazolo[1,5-a]pyridin-3-yl]methanone] | > 1000 | < 100 |  |  |  |  |  | 5.03 | 61.90 ± 16.82 | 37.27 | 40.89 ± 21.03 | 39.52 | 39.42 ± 13.92 |  |  |  |  |  | 
